Measurements: patent US12559559B2, “Targeting Galectin-9 as a therapeutic strategy for T-cell exhaustion in T-cell acute lymphoblastic leukemia” (DANA-FARBER CANCER INSTITUTE, INC., priority 2019, dated 2026)
Where two headings read alike, the source gives them in different places.

Legend:
[1] = tested on: HPB-ALL T-ALL cell line; assay: Cell proliferation assay (CellTiter-Glo cell viability), HPB-ALL; format: cell-based; conditions: Homo sapiens, HPBALL, 168 h, 7 days, read-out: IC50, cell viability normalized to DMSO
Protocol: (§1) FIG. 16A-16E is a series of graphs showing inhibition of T-ALL proliferation by PI3K inhibitor is increased when combined with GSI. DND-41, HPB-ALL, KOPT-K1, Jurkat and Loucy T-ALL cell lines were treated with Buparlisib, GSI, Buparlisib with 1 μM of GSI or DMSO for 7 days. Dose response curves of cell viability normalized to DMSO are shown (datapoints are derived from 3 replicates each, error bars show standard deviation).
(§2) The leukemia cell lines (all verified by STR profiling) DND-41, KOPT-K1, HPB-ALL, Loucy, MOLT-4, NALM-6, SEM, KG-1 and HL-60 were obtained from ATCC or DSMZ, and were cultured in RPMI 1640 with 10% of heat-inactivated fetal bovine serum, 1% penicillin/streptomycin (Invitrogen).
(§3) Buparlisib (Selleckchem) and GSI (Santa Cruz Biotechnology, Inc) were prepared in DMSO (Sigma-Aldrich). Cell proliferation assays were measured by CellTiter-Glo Luminescent Cell viability assay (Promega), after a period of seven days. IC50 values were calculated by fitting the dose-response curves to a three-parameter sigmoid dose-response model using GraphPad. Error bars reflect standard deviation.

[2] = tested on: Jurkat T-ALL cell line; assay: Cell proliferation assay (CellTiter-Glo cell viability), Jurkat; format: cell-based; conditions: Homo sapiens, 168 h, 7 days, read-out: IC50, cell viability normalized to DMSO
Protocol: as §1, §3

[3] = tested on: DND-41 T-ALL cell line; assay: Cell proliferation assay (CellTiter-Glo cell viability), DND-41; format: cell-based; conditions: DND41, 168 h, 7 days, read-out: IC50, cell viability normalized to DMSO
Protocol: as §1, §2, §3

[4] = tested on: Loucy T-ALL cell line; assay: Cell proliferation assay (CellTiter-Glo cell viability), Loucy; format: cell-based; conditions: 168 h, 7 days, read-out: IC50, cell viability normalized to DMSO
Protocol: as §1, §2, §3

[5] = tested on: KOPT-K1 T-ALL cell line; assay: Cell proliferation assay (CellTiter-Glo cell viability), KOPT-K1; format: cell-based; conditions: Homo sapiens, KOPTK1, 168 h, 7 days, read-out: IC50, cell viability normalized to DMSO
Protocol: as §1, §2, §3

[6] = tested on: Notch; assay: Single-cell RNA-seq of leukemic cells of ETP T-ALL patients before and after GSI treatment; format: in vivo, human; conditions: scRNA-seq
Description: Banked blood or bone marrow samples from patients with relapsed/refractory ETP T-ALL (see Table 1) were used in this study. All patients provided informed consent and were enrolled on a phase I clinical trial (NCT01363817) with the γ-secretase inhibitor (GSI) BMS-906024, a Notch inhibitor. Ayala Pharmaceuticals is investigating AL101 (BMS-906024) in a Phase II open-label, single-arm, multicenter study in ACC patients harboring known NOTCH1-4 activating mutations (ACCURACY; NCT03691207). Normal donor blood was obtained from Research Blood Components, LLC; and mononuclear cells (PBMCs) were isolated using Ficoll-Paque PLUS from GE Healthcare.
Full-length single-cell RNA-seq libraries were prepared using the SMART-seq2 protocol (Picelli et al., 2014 Nat Protoc, 9(1):171-181). cDNA was fragmented using Nextera XT (Illumina) and amplified with indexed Nextera PCR primers. Products were quantified using a Bioanalyzer High Sensitivity DNA Kit. Pooled libraries were sequenced on a NextSeq 500 (Illumina) with an average sequencing depth of 0.5-1 million reads per cell.
Processing and quality filtering of scRNA-seq data was carried out using trimmomatic^21, STAR (Dobin et al., 2013 Bioinformatics, 29(1):15-21), HTSeq (Anders et al., 2015 Bioinformatics, 31(2):166-169) and RSEM (Li et al., 2011 BMC Bioinformatics, 12:323). Clustering of single-cell profiles and marker gene analyses were performed using PAGODA2 (Fan et al., 2016 Nature methods, 13(3):241-244), monocole2 (Trapnell et al., 2014 Nat Biotechnol, 32(4):381-386), SEURAT (Butler et al., 2018 Nature Biotechnology, 36(5):411-420) and RNA velocity (La et al., 2018 Nature, 560(7719):494-498). Single nucleotide variant and copy number analyses were performed with mutect2 (Cibulskis et al., 2013 Nat Biotechnol, 31(3):213-219), InferCNV (Patel et al., 2014 Science, 344(6190):1396-1401; Tirosh et al., 2016 Science, 352(6282):189-196) and CONICSmat (Muller et al., 2018 Bioinformatics, 34(18):3217-3219). Single-cell profiles were compared with cell types from ImmGen (Heng et al., 2008 Nat Immunol, 9[…] a log-likelihood model. Transcriptional regulon and signaling pathway activities were analyzed with SCENIC (Fernandez et al., 2016 Cell Syst, 3(5):491-495 e495) and PROGENy (Schubert et al., 2018 Nat Commun, 9(1):20). Further details of the analysis are set forth below.
In order to fully define ETP T-ALL heterogeneity on the single-cell level, a full-length transcriptome analysis of 5,077 malignant and normal immune cells (T-cells, B-cells and monocytes) was performed from bone marrow or blood from four healthy donors and five patients with relapsed/refractory ETP T-ALL, diagnosed by immunophenotyping for ETP T-ALL, all with NOTCH1 gain-of-function mutations. These patients were treated with the γ-secretase inhibitor (GSI), and pre- and post-treatment samples were processed for this study.
The effects of Notch inhibition were next explored. […] It was hypothesized that persistence of a stem-like population might be the reason for the limited effects of Notch inhibitors in patients with relapsed/refractory Notch-mutant T-ALL.

[7] = ETP T-ALL patients treated with GSI

| SMILES | IC50 ([1]; Buparlisib alone) | IC50 ([1]; Buparlisib with 1 μM of GSI) | IC50 ([2]; Buparlisib alone) | IC50 ([2]; Buparlisib with 1 μM of GSI) | IC50 ([3]; DND-41, Buparlisib alone) | IC50 ([3]; DND-41, Buparlisib with 1 μM of GSI) | IC50 ([4]; Buparlisib alone) | IC50 ([4]; Buparlisib with 1 μM of GSI) | IC50 ([5]; KOPT-K1, Buparlisib alone) | IC50 ([5]; KOPT-K1, Buparlisib with 1 μM of GSI) | Cell cycle of leukemic cells upon treatment [6, 7] | Notch target gene expression upon treatment [6, 7] | Cycling stem-like root cells (root2) after treatment ([6]; ETP T-ALL patients) | Non-cycling root cells (root1) after treatment ([6]; ETP T-ALL patients) | Cells with high PI3K signaling activity compared to untreated cells ([6]; ETP T-ALL patients, PROGENy) |
| --- | --- | --- | --- | --- | --- | --- | --- | --- | --- | --- | --- | --- | --- | --- | --- |
| Nc1cc(C(F)(F)F)c(-c2cc(N3CCOCC3)nc(N3CCOCC3)n2)cn1 [Buparlisib] | 340 nM | 0.00723 nM | 720 nM | 423 nM | 1010 nM | 132 nM | 650 nM | 710 nM | 1160 nM | 250 nM | – | – | – | – | – |
| CN1C(=O)[C@@H](NC(=O)[C@H](CCC(F)(F)F)[C@H](CCC(F)(F)F)C(N)=O)N=C(c2ccccc2)c2ccccc21 [GSI, BMS-906024] | – | – | – | – | – | – | – | – | – | – | Cell cycle arrest | downregulation of Notch target genes | abolishes the cycling stem-like root cells (root2) | persist in the face of treatment | enrichment of cells with high PI3K signaling activity |
